Among the data in US6977264B2, “Substituted piperidines and methods of use” (Amgen Inc., priority 2001, dated 2005) are melting point values, retold here.

Each structure is given as a SMILES string. Counter-ions that a name gives are not always drawn.

As a reminder, the melting point is the temperature of the solid-liquid transition.

With `Cl.O=C(N[C@H](Cc1ccc(Cl)cc1)C(=O)N1CCC(c2ccccc2-n2cc[nH]c2=O)CC1)[C@@H]1Cc2ccccc2CN1`, the melting point is 191 °C (dec.). As to `CS(=O)(=O)N(CC1CC1)c1ccccc1C1CCN(C(=O)[C@@H](Cc2ccc(Cl)cc2)NC(=O)[C@@H]2Cc3ccccc3CN2)CC1` (as salt: HCl) (hydrate or solvate) [Example 11, N-[(1R)-1-[(4-Chlorophenyl)methyl]-2-(4-{2-[(cyclopropylmethyl)-(methylsulfonyl)amino]-phenyl}piperidyl)-2-oxoethyl]((3S)(3-1,2,3,4-tetrahydroisoquinolyl))carboxamide], the melting point fell in the range of 190 to 200 °C. To `CS(=O)(=O)Nc1ccccc1C1CCN(C(=O)[C@@H](Cc2ccc(Cl)c(Cl)c2)NC(=O)[C@@H]2Cc3ccccc3CN2)CC1` (as salt: HCl) [Example 10, ((3S)(3-1,2,3,4-Tetrahydroisoquinolyl))-N-[(1R)-1-[(3,4-dichlorophenyl)methyl]-2-(4-{2-[(methylsulfonyl)-amino]phenyl}piperidyl)-2-oxoethyl]carboxamide] belongs 181 °C (dec.).

On to `Cn1ccn(-c2ccccc2C2CCN(C(=O)[C@@H](Cc3ccc(Cl)cc3)NC(=O)[C@@H]3Cc4ccccc4CN3)CC2)c1=O` (as salt: HCl) [Example 17, ((3S)(3-1,2,3,4-Tetrahydroisoquinolyl))-N-((1R)-1-[(4-chlorophenyl)methyl]-2-{4-[2-(3-methyl-2-oxo(4-imidazolinyl))phenyl]piperidyl}-2-oxoethyl)carboxamide], for which the melting point is 178 °C (dec.).
